Where a name gives a salt, the structure may show the parent alone. Read-outs that look alike come from different tables or passages of the source.
What was measured:
TACE = TACE (Homo sapiens, UniProt P78536); assay: TACE inhibition (fluorescent peptidyl substrate); format: biochemical; conditions: In Vitro Inhibition of TACE, 1 uM; read-out: % Inhibition at 1 uM
Method: Using 96-well black microtiter plates, each well receives a solution composed of 10 µL TACE (final concentration 1µg/mL), 70µL Tris buffer, pH 7.4 containing 10% glycerol (final concentration 10 mM), and 10 µL of test compound solution in DMSO (final concentration 1µM, DMSO concentration <1%) and incubated for 10 minutes at room temperature.
The reaction is read (excitation 340 nm, emission 420 nm) for 10 min. and the increase in fluorescence over time is plotted as a linear line. The slope of the line is calculated and represents the reaction rate.
The linearity of the reaction rate is confirmed (r^2 >0.85). The mean (x±sem) of the control rate is calculated and compared for statistical significance (p<0.05) with drug-treated rates using Dunnett's multiple comparison test.

THP-1 cells = assay: THP-1 Soluble Protein Assay (LPS-stimulated; ELISA of TNF-a, TNF-R p75/80, TNF-R p55/60, IL-8); format: cell-based, human; conditions: for inhibition at 3 µM: Homo sapiens
[1] = THP-1, read-out: THP % inhibition @ 3 µM, 3 µM
[2] = THP-1, 3 µM, read-out: THP % Inhibition @ 3µM

TACE, sequence (P78536 215-824): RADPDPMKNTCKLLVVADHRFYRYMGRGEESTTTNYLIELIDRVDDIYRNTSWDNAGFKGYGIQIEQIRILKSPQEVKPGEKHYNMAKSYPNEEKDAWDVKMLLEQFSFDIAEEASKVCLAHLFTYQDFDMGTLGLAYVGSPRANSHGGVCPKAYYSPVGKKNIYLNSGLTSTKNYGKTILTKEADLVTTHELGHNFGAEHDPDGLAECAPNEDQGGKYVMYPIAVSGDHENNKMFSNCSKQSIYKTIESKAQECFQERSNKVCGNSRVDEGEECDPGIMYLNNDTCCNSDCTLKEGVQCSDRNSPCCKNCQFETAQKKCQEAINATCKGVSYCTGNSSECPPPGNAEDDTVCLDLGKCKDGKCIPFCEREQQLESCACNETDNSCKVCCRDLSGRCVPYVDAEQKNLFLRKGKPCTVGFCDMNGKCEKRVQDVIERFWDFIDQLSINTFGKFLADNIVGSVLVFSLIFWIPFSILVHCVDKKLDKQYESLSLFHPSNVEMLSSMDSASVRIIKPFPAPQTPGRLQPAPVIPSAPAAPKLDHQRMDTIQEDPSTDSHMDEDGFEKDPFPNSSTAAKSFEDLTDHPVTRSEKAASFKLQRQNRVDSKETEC

| Compound | inhibition at 3 µM (THP-1 cells; [1]) [%] | also measured |
| --- | --- | --- |
| CC#CCOc1ccc(S(=O)(=O)N[C@@H](COCc2ccccc2)C(=O)NO)cc1 [Example 97] | – | inhibition at 1 µM (TACE): 67.5% |
| CC#CCOc1ccc(S(=O)(=O)N(C)C(C(=O)NO)C(C)(C)SCCn2ccnc2)cc1 (centres unmarked) [Example 144, 2-({[4-(2-Butynyloxy)phenyl]sulfonyl)(methyl)amino]-N-hydroxy-3-methyl-3-{[2-(1H-imidazol-1-yl)ethyl]sulfanyl}butanamide] | 89 | – |
| CC#CCOc1ccc(S(=O)(=O)N(C)C(C(=O)NO)C(C)(C)SCCN2CCOCC2)cc1 (centres unmarked) [Example 140, 2-({[4-(2-Butynyloxy)phenyl]sulfonyl)(methyl)amino]-N-hydroxy-3 methyl-3-[(2(4-morpholinylethyl)sulfanyl]-butanamide hydrochloride] | 80 | – |
| CC1(C)SCCN(S(=O)(=O)c2ccc(OCC#CCO)cc2)C1C(=O)NO (centres unmarked) [Example 61, 4-[4-(4-Hydroxy-but-2-ynyloxy)-benzenesulfonyl]-2,2-dimethyl-thiomorpholine-3-carboxylic acid hydroxyamide] | – | inhibition at 3 µM (THP-1 cells; THP-1, read-out: THP % inhibition @ 3 µM): 89% |
| CC1(C)SCCN(S(=O)(=O)c2ccc(OCC#CCCOC3CCCCO3)cc2)C1C(=O)NO (centres unmarked) [Example 243, N-Hydroxy-2,2-dimethyl-4-[(4-{[5-(tetrahydro-2H-pyran-2-yloxy)-2-pentynyl]oxy}phenyl)sulfonyl]-3-thiomorpholine carboxamide] | 52 | – |
| CC#CCOc1ccc(S(=O)(=O)N(Cc2cccnc2)C2(C(=O)NO)CCCCC2)cc1 [Example 137, 1-[{[4-(2-Butynyloxy)phenyl]sulfonyl}(3-pyridinylmethyl)amino] N-hydroxycyclohexanecarboxamide] | 0 | – |
| CC#CCOc1ccc(S(=O)(=O)N(C)C(C(=O)NO)C(C)(C)SCCN2CCCC2)cc1 (centres unmarked) [Example 143, 2-({[4-(2-Butynyloxy)phenyl]sulfonyl)(methyl)amino]-N-hydroxy-3-methyl-3-{[2(1-pyrrolidinyl)ethyl]sulfanyl}butanamide] | 86 | – |
| CC#CCOc1ccc(S(=O)(=O)NC(C(=O)NO)c2ccc(O)cc2)cc1 (centres unmarked) [Example 176, 2-({[4-(2-Butynyloxy)phenyl]sulfonyl}amino)-N-hydroxy-2-(4-hydroxyphenyl)acetamide] | 89 | – |
| CC#CCOc1ccc(S(=O)(=O)N2CCN(C(=O)Nc3ccc(OC)cc3)CC2C(=O)NO)cc1 (centres unmarked) [Example 221, 4-{[4-(2-Butynyloxy)phenyl]sulfonyl}-N-3-hydroxy-N-1-(4-methoxyphenyl)-1,3-piperazinedicarboxamide] | 58 | – |
| CC#CCOc1ccc(S(=O)(=O)N(C)C(C(=O)NO)c2ccc(OCCN3CCN(C(=O)OC(C)(C)C)CC3)cc2)cc1 (centres unmarked) [Example 185, tert-butyl 4-(2-{4-[1-[{[4-(2-butynyloxy)phenyl]sulfonyl}(methyl)amino]-2-(hydroxyamino)-2-oxoethyl]phenoxy}ethyl)-1-piperazinecarboxylate] | 89 | – |
| CC#CCOc1ccc(S(=O)(=O)N2CCN(C(=O)N3CCOCC3)CC2C(=O)NO)cc1 (centres unmarked) [Example 215, 1-(4-But-2-ynyloxy-benzenesulfonyl)-4-(morpholine-4-carbonyl)-piperazine-2-carboxylic acid hydroxyamide] | 51 | – |
| C#CCOc1ccc(S(=O)(=O)N2CCSC(C)(C)[C@@H]2C(=O)NO)cc1 [Example 258, (3S)-N-Hydroxy-2,2-dimethyl-4-{[4-(2-propynyloxy)phenyl]sulfonyl}-3-thiomorpholine carboxamide] | 91 | – |
| CC#CCOc1ccc(S(=O)(=O)N2C[C@H](C)SC(C)(C)[C@@H]2C(=O)NO)cc1 [Example 272, (3S,6S)-4-{[4-(2-Butynyloxy)phenyl]sulfonyl}-N-hydroxy-2,2,6-trimethyl-3-thiomorpholinecarboxamide] | – | inhibition at 3 µM (THP-1 cells; [2]): 92% |
| CC#CCOc1ccc(S(=O)(=O)N(C)[C@@H](C(=O)NO)c2ccc(O[C@H]3CCN(C(=O)OC(C)(C)C)C3)cc2)cc1 [Example 189, tert-Butyl (3S)-3-{4-[(1R)-1-[{[4-(2-butynyloxy)phenyl]sulfonyl}(methyl)amino]-2-(hydroxyamino)-2-oxoethyl]phenoxy}-1-pyrrolidinecarboxylate] | 92 | – |
| CC#CCOc1ccc(S(=O)(=O)N(C)C(C(=O)NO)c2ccc(OCCN(C)C)cc2)cc1 (centres unmarked) [Example 182, 2-[{[4-(2-Butynyloxy)phenyl]sulfonyl}(methyl)amino]-2-{4-[2-(dimethylamino)ethoxy]phenyl}-N-hydroxyacetamide] | 92 | – |
| CC#CCOc1ccc(S(=O)(=O)N(CCC)C(C(=O)NO)C(C)C)cc1 (centres unmarked) [Example 110, 2-[(4-But-2-ynyloxy-benzenesulfonyl)-propyl-amino]-N-hydroxy-3-methyl-butyramide] | 47 | – |
| CC#CCOc1ccc(S(=O)(=O)N(Cc2cccnc2)C(CSCc2ccccc2)C(=O)NO)cc1 (centres unmarked) [Example 157, 3-(Benzylthio)-2-[[[4-(2-butynyloxy)phenyl]sulfonyl]pyridin-3-ylmethylamino]-N-hydroxypropanamide] | 79 | – |
| CC#CCOc1ccc(S(=O)(=O)N(C)CC(=O)NO)cn1 [Example 131, 2-[(6-But-2-ynyloxy-pyridine-3-sulfonyl)-methyl-amino]-N-hydroxy-acetamide] | 18 | – |

| Compound | inhibition at 3 µM (THP-1 cells; [1]) [%] | also measured |
| --- | --- | --- |
| CC#CCOc1ccc(S(=O)(=O)N(C)C(C(=O)NO)c2ccc(OCCCNC(=O)OCCCC)cc2)cc1 (centres unmarked) [Example 195, Butyl 3-{4-[1-[{[4-(2-butynyloxy)phenyl]sulfonyl}(methyl)amino]-2-(hydroxyamino)-2-oxoethyl]phenoxy}propylcarbamate] | 90 | – |
| CC#CCOc1ccc(S(=O)(=O)N(C)C(C(=O)NO)C(C)(C)SCCN(CC)CC)cc1 (centres unmarked) [Example 142, 2-({[4-(2-Butynyloxy)phenyl]sulfonyl)(methyl)amino]-N-hydroxy-3 methyl-3-{[2-(diethylamino)ethyl]sulfanyl}butanamide] | 89 | – |
| CC#CCOc1ccc(S(=O)(=O)N(C)C(C(=O)NO)c2ccc(Cl)cc2)cc1 (centres unmarked) [Example 212, 2-[{[4-(2-Butynyloxy)phenyl]sulfonyl}(methyl)amino]-2-(4-chlorophenyl)-N-hydroxyacetamide] | 86 | – |
| CC#CCOc1ccc(S(=O)(=O)N(CCCN2CCOCC2)C(C(=O)NO)C(C)C)cc1 (centres unmarked) [Example 119, 2-{{[4-(2-Butynyloxy)phenyl]sulfonyl}[3-(4-morpholinyl)propyl]amino}-N-hydroxy-3-methylbutanamide] | 61 | – |
| CC#CCOc1ccc(S(=O)(=O)N(C)[C@@H](C(=O)NO)C2CCC(N(CC)CC)CC2)cc1 (stereo partly drawn) [Example 128, ((2R)-{[4-(2-Butynyloxy)phenyl]sulfonyl}(methyl)amino)[(4-diethylamino)cyclohexyl]-N-hydroxyethamide] | 51 | – |
| CC#CCOc1ccc(S(=O)(=O)N(C)C(C(=O)NO)c2ccc(OCCN(C)C(=O)OC(C)(C)C)cc2)cc1 (centres unmarked) [Example 191] | 90 | – |
| CC#CCOc1ccc(S(=O)(=O)N2CC[S+]([O-])C(C)(C)C2C(=O)NO)cc1 (single isomer, unassigned) [Example 255] | – | THP % inhibition @ 3 µM (THP-1 cells; 3 µM): 95% |
| CC(=O)OCC#CCOc1ccc(S(=O)(=O)N2CCSC(C)(C)[C@@H]2C(=O)NO)cc1 [Example 261, 4-[4-({(3S)-3-[(Hydroxyamino)carbonyl]-2,2-dimethylthiomorpholinyl}suffonyl)phenoxy]-2-butynyl acetate] | 92 | – |
| CC#CCOc1ccc(S(=O)(=O)N2CCN(C(=O)N3CCCC3)CC2C(=O)NO)cc1 (centres unmarked) [Example 217, 1-(4-But-2-ynyloxy-benzenesulfonyl)-4-(pyrrolidine-1-carbonyl)-piperazine-2-carboxylic acid hydroxyamide] | 73 | – |
| CC#CCOc1ccc(S(=O)(=O)NC(C(=O)NO)c2ccc(OCCN(C)C(=O)OC(C)(C)C)cc2)cc1 (centres unmarked) [Example 203, tert-Butyl 4-(2-{4-[1-({[4-{2-butynyloxy)phenyl]sulfonyl}amino)-2-(hydroxyamino)-2-oxoethyl)phenoxy]ethyl)-(methyl)carbamate] | 73 | – |
| CC#CCOc1ccc(S(=O)(=O)N(C)C2(C(=O)NO)CCCCC2)cc1 [Example 136, 1-[{[4-(2-Butynyloxy)phenyl]sulfonyl}(methyl)amino] -N-hydroxycyclohexanecarboxamide] | 0 | – |
| CC1(C)SCCN(S(=O)(=O)c2ccc(OCC#CCOCc3ccccc3)cc2)C1C(=O)NO (centres unmarked) [Example 247, 4-[(4-{[4-(Benzyloxy)-2-butynyl]oxy}phenyl)sulfonyl]-N-hydroxy-2,2-dimethyl-3-thiomorpholine carboxamide] | 57 | – |
| C#CCOc1ccc(C(NS(=O)(=O)c2ccc(OCC#CC)cc2)C(=O)NO)cc1 (centres unmarked) [Example 177, 2-({[4-(2-Butynyloxy)phenyl]sulfonyl}amino)-N-hydroxy-2-[4-(2-propynyloxy)phenyl]acetamide] | 64 | – |
| CC#CCOc1ccc(S(=O)(=O)N(C)C(C(=O)NO)c2ccc(OCCN3CCCC3)cc2)cc1 (centres unmarked) [Example 183, 2-[{[4-(2-Butynyloxy)phenyl]sulfonyl}(methyl)amino]-N-hydroxy-2-{4-[2-(1-pyrrolidinyl)ethoxy]phenyl}acetamide] | 93 | – |
| CC#CCOc1ccc(S(=O)(=O)N(C)C(C(=O)NO)c2ccc(OCCCN)cc2)cc1 (centres unmarked) [Example 188, 2-[4-(3-Aminopropoxy)phenyl]-2-[{[4-(2-butynyloxy)phenyl]sulfonyl}(methyl)amino]-N-hydroxyacetamide] | 94 | – |
| CC#CCOc1ccc(S(=O)(=O)N(C)C(C(=O)NO)c2ccc(OCCCNS(C)(=O)=O)cc2)cc1 (centres unmarked) [Example 197, 2-[{[4-(2-Butynyloxy)phenyl]sulfonyl}(methyl)amino]-N-hydroxy-2-(4-{3-[(methylsulfonyl)amino]propoxy}phenyl)acetamide] | 94 | – |
| CC#CCOc1ccc(S(=O)(=O)N2[C@H](C)CSC(C)(C)[C@@H]2C(=O)NO)cc1 [Example 271, (3S,5R)-4-{[4-(2-Butynyloxy)phenyl]sulfonyl}-N-hydroxy-2,2,5-trimethyl-3-thiomorpholinecarboxamide] | – | inhibition at 3 µM (THP-1 cells; [2]): 82% |

— EP1144368B1, “ACETYLENIC ALPHA-AMINO ACID-BASED SULFONAMIDE HYDROXAMIC ACID TACE INHIBITORS” (priority 1999, dated 2000)
